Laboratory results as given in ChEMBL document CHEMBL5604062, “ASAP - ZIKV NS2B-NS3 protease fluorescence dose response” (2024).
Values joined by “and” are separate entries in the source; they are usually repeats but may differ in a detail not shown here. Identical values can stand only once. Residues, ends and D or L forms follow the SMILES beside them. *: point of attachment. pNA = O=[N+]([O-])c1ccc(N*)cc1; Boc = CC(C)(C)OC(=O)*

Key:
Nonstructural protein 3 [1] = molecular target: T1, Nonstructural protein 3 (Zika virus, UniProt A0A024AXB9); experiment: Functional biochemical assay to identify treatments for viral infectious disease that targets Zika NS2B-NS3 protease. Utilizing a direct enzyme activity measurement method, reading the fluorescence intensity is used to characterize the relative potency of inhibitors as IC50. Synthetic construct has been made based on Zika virus (strain PRVABC59) by Centre for Medicines Discovery, University of Oxford, and the assay has been performed by Enamine biological services, Bienta Ltd.The protocol is publicly available: dx.doi.org/10.17504/protocols.io.36wgqn273gk5/v1
Nonstructural protein 3 [2] = molecular target: T1, Nonstructural protein 3; experiment: Functional biochemical assay to identify treatments for viral infectious disease that targets Zika NS2B-NS3 protease. Utilizing a direct enzyme activity measurement method, reading the fluorescence intensity is used to characterize the relative potency of inhibitors as IC50.; set-up: species or system PRVABC59

T1 sequence (A0A024AXB9 whole entry): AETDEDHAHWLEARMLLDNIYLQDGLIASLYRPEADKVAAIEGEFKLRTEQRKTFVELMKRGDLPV

IC50 (Nonstructural protein 3 [1]) | IC50 (Nonstructural protein 3 [2]) | SMILES
1020 nM and 213 nM |  | O=C(NC1CCOCC1)[C@H](Nc1ccc2c(c1)CNC2)c1cc(Cl)cc(C2CC2)c1
 | 1770 nM | O=C(Nc1ccc2c(c1)CNC2)c1ccc2c(c1)C1(CC1)C(=O)N2
> 25000 nM | 22700 nM | CC(=O)N(c1ccc2c(c1)CNC2)[C@]1(c2cc(Cl)cc(C3CC3)c2)CN(C)C1=O
 | 163 nM | CN1CCC[C@H](c2nc3c(C(=O)Nc4ccc5c(c4)CNC5)cc(F)cc3[nH]2)C1=O
201 nM | 44 nM and 37 nM | O=C(NCC(F)F)[C@H](Nc1ccc2c(c1)CNC2)c1cc(Br)cc2nc[nH]c12
260 nM | 182 nM | O=C(O)COc1ccc(Cl)cc1[C@H](Nc1ccc2c(c1)CNC2)C(=O)NCC(F)F
320 nM and 334 nM | 297 nM | C=C(C)c1ccc(Cl)cc1[C@H](Nc1ccc2c(c1)CNC2)C(=O)NCC(F)F
135 nM and 143 nM | 57 nM and 42 nM | N#CCOc1ccc(Br)cc1[C@H](Nc1ccc2c(c1)CNC2)C(=O)NCC(F)F
 | 1190 nM | CO[C@]1(C)C(=O)Nc2cc(F)cc(C(=O)Nc3ccc4c(c3)CNC4)c21
106 nM and 91 nM | 19 nM and 13 nM | O=C(NCC(F)F)[C@H](Nc1cc2c(cc1Br)CNC2)c1cc(Cl)cc(C2CC2)c1
104 nM and 88 nM | 19 nM and < 12 nM | CNC(=O)c1cc(Br)cc([C@H](Nc2ccc3c(c2)CNC3)C(=O)NCC(F)F)c1
 | 875 nM | CCS(=O)(=O)c1ccc(Cl)cc1[C@H](Nc1ccc2c(c1)CNC2)C(=O)NCC(F)F
 | 236 nM | O=C(Nc1ccc2c(c1)CNC2)c1cc(F)cc(-c2cnc3n2CCC3)c1
 | 1140 nM | C[C@]1(OCCO)C(=O)Nc2cc(F)cc(C(=O)Nc3ccc4c(c3)CNC4)c21
 | 197 nM | O=C(NCC(F)F)[C@H](Nc1ccc2c(c1)CNC2)c1cc(Cl)cc(Cl)c1OCCN1CCOCC1
3720 nM | 2380 nM | CC(=O)N[C@]1(C)C(=O)Nc2cc(F)cc(C(=O)Nc3ccc4c(c3)CNC4)c21
114 nM and 107 nM | 20 nM and < 12 nM | O=C(NCC(F)F)[C@H](Nc1cnc2c(c1)CNC2)c1cc(Cl)cc(C2CC2)c1

IC50 (Nonstructural protein 3 [1]) | IC50 (Nonstructural protein 3 [2]) | SMILES
 | 106 nM | CC(C)Oc1ccc(Cl)cc1[C@H](Nc1ccc2c(c1)CNC2)C(=O)NCC(F)F
4210 nM |  | O=C(Nc1ccc2c(c1)CNC2)c1cc(Cl)cc2[nH]c(-c3cccc(F)c3)nc12
89 nM | 17 nM and 16 nM and < 12 nM | O=C(Nc1ccc2c(c1)CNC2)c1cccc2c(C3CNC3)n[nH]c12
 | 150 nM | O=C(NCC(F)F)[C@H](Nc1ccc2c(c1)CNC2)c1cc(Br)ccc1OCc1ccccn1
158 nM | 88 nM and 77 nM | CS(=O)(=O)c1cncc(-c2cc(F)cc(C(=O)Nc3ccc4c(c3)CNC4)c2)c1
141 nM and 127 nM | 29 nM and 20 nM | O=C(NCC(F)F)[C@H](Nc1ccc2c(c1)CNC2)c1cc(Br)cc2cn[nH]c12
 | 1930 nM | CC(=O)N(c1ccc2c(c1)CNC2)[C@H](C(=O)NCC(F)F)c1cc(Cl)cc(C2CC2)c1
636 nM | 358 nM | O=C(NCC(F)F)[C@H](Nc1ccc2c(c1)CNC2)c1cc(Br)ccc1C1CC1
4160 nM and 3340 nM | 10700 nM | C[C@H]1C(=O)Nc2ccc(C(=O)Nc3ccc4c(c3)CNC4)cc21
130 nM and 131 nM | 77 nM and 66 nM | O=C1C[C@H](c2cccc(-c3cc(F)cc(C(=O)Nc4ccc5c(c4)CNC5)c3)c2)N1
143 nM and 147 nM | 99 nM and 77 nM | O=C(NCC(F)F)[C@H](Nc1ccc2c(c1)CNC2)c1cc(Br)cc2ccccc12
2520 nM |  | O=C(Nc1ccc2c(c1)CNC2)c1cc(Cl)cc2[nH]c(-c3ccccc3)nc12
198 nM and 238 nM | 212 nM | O=C(NCC(F)F)[C@H](Nc1ccc2c(c1)CNC2)c1cc(Br)ccc1Oc1ccc(Cl)c(Cl)c1
 | 129 nM | O=C(NCC(F)F)[C@H](Nc1ccc2c(c1)CNC2)c1cc(Cl)ccc1OC[C@H]1CCCO1
 | 1490 nM | O=C1CCc2cc(C(=O)Nc3ccc4c(c3)CNC4)cc(F)c2N1
3460 nM | 1870 nM | CC(C)n1nncc1-c1cc(F)cc(C(=O)Nc2ccc3c(c2)CNC3)c1

Second part, the compound before the results:

SMILES | IC50 (Nonstructural protein 3 [1]) | IC50 (Nonstructural protein 3 [2])
N=C(N)NCCC[C@H](NC(=O)c1nccs1)C(=O)N[C@@H](CCCCN)C(=O)N[C@@H](C(N)=O)c1ccc(OCc2ccc(C(F)(F)F)cc2)cc1 | 6210 nM and 4390 nM and 8320 nM and 7700 nM and 6310 nM and 6150 nM and 5910 nM and 5860 nM and 5590 nM | 
N=C(N)NCCC[C@H](NC(=O)[C@H](Cc1ccc(CN)cc1)NC(=O)c1ccccc1)B(O)O | 559 nM and 327 nM and 558 nM and 628 nM and 585 nM and 637 nM and 438 nM and 552 nM and 595 nM | 508 nM and 353 nM and 260 nM and 186 nM and 245 nM and 211 nM (2×) and 238 nM and < 2.49 µM (9×) and 73 nM and 247 nM and 292 nM and 237 nM and 241 nM and 141 nM and 262 nM and 254 nM and 233 nM
N#Cc1cccc(-c2nc3c(C(=O)Nc4cccnc4)cc(Cl)cc3[nH]2)c1 | > 25000 nM | 
N#Cc1cccc(-c2nc3c(C(=O)Nc4ccncc4)cc(Cl)cc3[nH]2)c1 | > 25000 nM | 
N#Cc1cccc(-c2nc3c(C(=O)NCc4ccccc4)cc(Cl)cc3[nH]2)c1 | > 25000 nM | 
O=C1Cc2c(cccc2C(=O)Nc2ccc3c(c2)[C@H](O)CCO3)N1 | > 25000 nM | > 25000 nM
CSc1cc2c(cc1NC(=O)c1cc(F)cc3[nH]ncc13)CNC2 |  | 47 nM and 32 nM
O=C1Cc2c(cccc2C(=O)Nc2ccnn2Cc2ccncc2)N1 | > 25000 nM | > 25000 nM
O=C1Cc2c(cccc2C(=O)Nc2nnc3n2CCCS3)N1 | > 25000 nM | > 25000 nM
NC(=O)c1cn(C2CCCC2)nc1NC(=O)c1cccc2c1CC(=O)N2 | > 25000 nM | > 25000 nM
O=C1Cc2c(cccc2C(=O)Nc2cnn(Cc3ccncc3)c2)N1 | > 25000 nM | > 25000 nM
O=C1Cc2c(cccc2C(=O)Nc2ccc3[nH]nnc3c2)N1 |  | > 25000 nM
CC(C)(C)OC(=O)N1Cc2cc(NC(=O)c3cc(Cl)cc4c3cnn4[C@@H]3CCCCO3)ccc2[C@H]1CO |  | > 25000 nM
O=C1Cc2c(cccc2C(=O)Nc2ccc3c(c2)CCNCC3)N1 | 2110 nM | 1230 nM
O=C(Nc1cnc2c(c1)CNC2)c1cc(F)cc2[nH]ncc12 | 83 nM | 27 nM and 15 nM
O=C(Nc1ccc2c(c1)CN[C@H]2CC1CC1)c1cc(F)cc2[nH]ncc12 | 317 nM and 284 nM | 192 nM
O=C1Nc2ccc(C(=O)Nc3ccc4c(c3)CNC4)cc2C1=O | 8150 nM | 1470 nM and 1730 nM
COc1ccc(-c2nc3c(C(=O)Nc4ccc5c(c4)CNC5)cc(F)cc3[nH]2)nn1 | 90 nM and 98 nM | 23 nM (2×) and 14 nM and 27 nM
CC(C)(C)OC(=O)N1Cc2ccc(N[C@H](C(=O)O)c3cc(Cl)cc4[nH]ncc34)cc2C1 | > 25000 nM | > 25000 nM
Cc1c(C(=O)Nc2cc(C(=O)N3CC4(CCO4)C3)ccn2)cc(C2CC2)n1C |  | > 25000 nM
O=C1Cc2c(cccc2C(=O)Nc2cnc(OC3CCC3)nc2)N1 |  | > 25000 nM
Cn1nc([C@H](Nc2cc([C@H]3CCOC3)ccn2)C(F)(F)F)cc1C1CC1 |  | > 25000 nM
Cc1cc(CN)cc(NC(=O)c2cccc3c2CC(=O)N3)c1 |  | 3050 nM
O=C1Cc2c(cccc2C(=O)Nc2ccc(Cl)c(CO)n2)N1 |  | > 25000 nM
N#Cc1cccc(-c2nc3c(C(=O)NCc4ccccn4)cc(Cl)cc3[nH]2)c1 | > 25000 nM | 
N#CCc1cc(NC(=O)c2cc(F)cc3[nH]ncc23)cc2c1CNC2 | 70 nM and 79 nM | 16 nM and < 12 nM
O=C1Cc2c(cccc2C(=O)Nc2ccc3c(c2)CNCC3)N1 |  | 3030 nM

SMILES | IC50 (Nonstructural protein 3 [1]) | IC50 (Nonstructural protein 3 [2])
N#Cc1cccc(-c2nc3c(C(=O)NCc4cccnc4)cc(Cl)cc3[nH]2)c1 | > 25000 nM | 
NCc1csc2cc(C(=O)Nc3ccc4c(c3)CNC4)ccc12 | 216 nM | 125 nM and 219 nM
O=C1Cc2c(cccc2C(=O)Nc2cc(Br)c3ncnn3c2)N1 | > 25000 nM | > 25000 nM
NCCCn1c(C2CC2)cc(C(=O)Nc2cc([C@H]3CCOC3)ccn2)c1C1CC1 | > 25000 nM | > 25000 nM
O=C1Cc2c(cccc2C(=O)Nc2ccc(O[C@H]3CCOC3)nc2)N1 |  | > 25000 nM
O=C1Cc2c(cccc2C(=O)Nc2cccc(-c3cn[nH]c3)c2)N1 | > 25000 nM | > 25000 nM
Clc1cc(CNc2ccc3c(c2)[C@@H]2CC[C@H]3N2)c2cn[nH]c2c1 |  | > 25000 nM
O=C1Cc2c(cccc2C(=O)Nc2cccc(Cc3nn[nH]n3)c2)N1 | > 25000 nM | > 25000 nM
O=C1Cc2c(cccc2C(=O)Nc2ccc3c(c2)CNCCO3)N1 |  | 1480 nM
NCc1cccc(NC(=O)c2cccc3c2CC(=O)N3)c1 | 2320 nM | 1540 nM
Nc1ccncc1-c1cc(F)cc(C(=O)Nc2ccc3c(c2)CNC3)c1 | 146 nM | 54 nM and 38 nM
CCc1cnc2c(NC(=O)c3cccc4c3CC(=O)N4)cnn2c1 | > 25000 nM | > 25000 nM
N#Cc1c[nH]c2c(C(=O)Nc3ccc4c(c3)CNC4)cccc12 |  | 582 nM
O=C1Cc2c(cccc2C(=O)Nc2ccc3c(n2)CNC3)N1 |  | 1420 nM
O=C1Cc2c(cccc2C(=O)Nc2nc([C@H]3CCCOC3)cs2)N1 | > 25000 nM | > 25000 nM
NCCc1cccc(NC(=O)c2cccc3c2CC(=O)N3)c1 | 533 nM | 333 nM
Cc1[nH]c2c(C(=O)Nc3ccc4c(c3)CNC4)cccc2c1C |  | 1190 nM
O=C(Nc1cc2c(cn1)CNC2)c1cc(F)cc2[nH]ncc12 | 163 nM | 77 nM and 55 nM
O=C(O)C[C@H]1NCc2cc(NC(=O)c3cc(Cl)cc4[nH]ncc34)ccc21 |  | 952 nM
CC(C)O[C@]1(C)C(=O)Nc2cc(F)cc(C(=O)Nc3ccc4c(c3)CNC4)c21 |  | 1260 nM
Cc1c(C(=O)Nc2cc(C(=O)N3CC(C(N)=O)C3)ccn2)cc(C2CC2)n1C |  | > 25000 nM
C[C@H](NC(=O)c1cccc2c1CC(=O)N2)c1nnc2n1CCCC2 | > 25000 nM | > 25000 nM
N[C@H]1Cc2ccc(NC(=O)c3cccc4c3CC(=O)N4)cc2C1 | 7500 nM | 2770 nM
CSCC[C@H](NC(=O)OC(C)(C)C)C(=O)N1CCC[C@H]1C(=O)Nc1ccc([N+](=O)[O-])cc1 (Boc-Met-Pro-pNA) |  | > 99500 nM
CSCC[C@H](N)C(=O)N1CCC[C@H]1C(=O)Nc1ccc([N+](=O)[O-])cc1 (H-Met-Pro-pNA) |  | > 99500 nM
O=C(Nc1ccccc1)OCc1ccccc1 [BENZYL PHENYLCARBAMATE] |  | > 100000 nM
O=C(Nc1ccccc1)Oc1ccccc1 [PHENYL PHENYLCARBAMATE] |  | > 100000 nM
